{
  "source": "paper PMC6158767",
  "about": "“Vistusertib (dual m-TORC1/2 inhibitor) in combination with paclitaxel in patients with high-grade serous ovarian and squamous non-small-cell lung cancer” (Annals of Oncology, 2018)",
  "key": {"[1]": {"system": "Ser^473 p-AKT in platelet-rich plasma", "assay": "Phosphorylation of AKT (Ser473) in platelet-rich plasma, MSD electrochemiluminescent immunoassay", "type": "in vivo, human", "method": "Figure 1. Pharmacodynamic profile of vistusertib at 50 mg bd 3/7. Phosphorylation of AKT (Ser473) in platelet-rich plasma was quantified using MSD electrochemiluminescent immunoassays and normalised to corresponding total AKT values. Baseline values were established prior to the start of treatment. On C1D1, only paclitaxel (80 mg/m^2) was administered and a non-significant rise in p-ATK at 4 h following treatment was noted. […] On C1D8, the combination of paclitaxel and vistusertib was administered, which caused a significant reduction of p-AKT compared with baseline. Points represent individual patients, orange line represents mean of up to N = 6 patients. Four samples were excluded because of haemolysis, which interfered with the assay (*P<0.05; paired t-test).\npAkt was assessed in platelet rich plasma (PRP) using a sandwich immunoassay as per manufacturer’s instructions (K11100D, Meso Scale Discovery, Maryland, USA) which consisted of a multiplex assay with plates pre-coated with phospho(Ser473) Akt and total Akt capture antibodies. These plates were blocked for 1 hour, incubated with sample for 1 hour, and finally incubated with an anti-total Akt detection antibody conjugated to MSD-SULFO-TAG for 1 hour before being detected on a Meso Scale Discovery Sector Imager 6000 using electrochemiluminescence in order to determine the percentage of Akt phosphorylated. During validation the inter-assay precision ranged from 6.75 to 7.17%."}, "[2]": {"assay": "Pharmacokinetic sampling (plasma, LC-MS/MS) in the dose-escalation arm", "conditions": "paclitaxel with vistusertib", "procedure": "(§3) This method is applicable to the analysis of AZD2014 in human plasma treated with K2EDTA anticoagulant. AZD2014 and the internal standard (ISTD), 13C22H2AZ12729279 are extracted from human plasma by solid-phase extraction (SPE). After evaporation under nitrogen, the residue is reconstituted and analysed using liquid chromatography (LC) with tandem mass spectrometric detection (MS/MS). The standard curve range is from 20.0 to 20,000 ng/mL for AZD2014, using a plasma sample volume of 0.0250 mL."}, "[3]": {"conditions": "in vivo", "procedure": "as §3"}, "[4]": {"system": "patients with sqNSCLC", "assay": "Toxicity (NCI-CTCAE V4.0) in the squamous non-small cell lung cancer expansion cohort", "method": "Patients administered with 80 mg/m^2 paclitaxel with 50 mg vistusertib bd 3/7 days for 6/7 weeks, dosing starting concurrently on day 1 of each week\nPatients administered with 80 mg/m^2 paclitaxel with 25 mg vistusertib bd 3/7 days for 6/7 weeks, dosing starting concurrently on day 1 of each week treated at paclitaxel 80 mg/m^2/week and vistusertib 25 mg bd 3/7."}, "[5]": {"system": "high-grade serous ovarian cancer (HGSOC)", "assay": "Ovarian cancer expansion: RECIST v1.1 / GCIG CA125 response and progression-free survival", "type": "in vivo, human", "method": "(§1) RECIST v1.1 was used to assess tumour response supported by GCIG CA125 response in patients with HGSOC. Response was assessed at the end of every 7-week cycle.\n(§2) Progression-free survival was estimated by the Kaplan–Meier method, beginning on the day of the first dose (C1D1) and continuing until disease progression. Patients who came off study for reasons other than disease progression (clinical or RECIST) were censored. This study is registered with ClinicalTrials.gov, identifier: NCT02193633.\nTwenty-seven patients with relapsed/refractory HGSOC were treated at the RP2D. Two patients were replaced as per protocol and were not considered for assessment of response. The median number of previous treatments was three: the majority (26/27; 96%) of patients having received paclitaxel and 3/27 patients (11%) having previously received weekly paclitaxel (supplementary Table S2, available at Annals of Oncology online). The RECIST and CA125 response rates were 13/25 (52%) and 16/25 (64%), respectively (Figure 2A). The mPFS was 5·8 months (95% CI: 3.3–18.5)."}, "[6]": {"system": "ovarian cancer models", "set-up": "method as in PMID 29371953", "conditions": "in vitro and in vivo; cited from earlier work"}, "[7]": {"assay": "clinical", "conditions": "human, in vivo, geometric mean; for AUC(0-t): AUClast of vistusertib; for Cmax: Cmax of vistusertib; for half-life: HL Lambda_z (half-life) of vistusertib", "procedure": "as §3"}, "[8]": {"system": "patients", "assay": "Toxicity (NCI-CTCAE V4.0), whole study: hyperglycaemia incidence", "conditions": "vistusertib + weekly paclitaxel"}, "[9]": {"set-up": "method as in PMID 23375793, PMID 25805799", "conditions": "cited from earlier work"}, "[10]": {"system": "patients with advanced solid tumours", "assay": "Toxicity (NCI-CTCAE V4.0), DLT and MTD in the dose-escalation cohort, vistusertib with weekly paclitaxel 80 mg/m^2", "method": "The dose of paclitaxel administered was 80 mg/m^2 once weekly for 6/7 weeks in a 7-week cycle. In the first week of the dose-escalation cohorts, patients received only paclitaxel on C1D1, then vistusertib on C1D3 to allow for PK and PD samplings. Patients then received weekly paclitaxel (on days 8, 15, 22, 29, and 36) with vistusertib, also starting on days 8, 15, 22, 29, and 36, given orally twice daily either for three consecutive days per week (schedule A: 3/7 days, 6/7 weeks) or two consecutive days per week (schedule B: 2/7 days, 6/7 weeks). In the dose expansion, schedule A was taken forward with patients dosing with vistusertib weekly on days 1–3 for 6 weeks of a 7-week cycle."}, "[11]": {"system": "squamous non-small-cell lung cancer (sqNSCLC)", "assay": "Squamous lung cancer expansion: RECIST v1.1 response and progression-free survival", "type": "in vivo, human", "method": "as §1, §2"}, "[12]": {"system": "sqNSCLC", "assay": "RECIST response in the dose-escalation cohort", "type": "in vivo, human", "conditions": "vistusertib + weekly paclitaxel", "method": "as §1"}, "[13]": {"conditions": "Lung Expansion 25 mg + paclitaxel (N=24), all grades"}, "[14]": {"conditions": "Lung Expansion 50 mg + paclitaxel (N=17), all grades"}, "[15]": {"conditions": "HGSOC expansion, 50 mg vistusertib bd 3/7 days + paclitaxel 80 mg/m^2"}, "[16]": {"conditions": "HGSOC expansion, 50 mg vistusertib bd 3/7 days + paclitaxel 80 mg/m^2, 25 patients"}, "[17]": {"conditions": "sqNSCLC expansion, 25 mg cohort"}, "[18]": {"conditions": "sqNSCLC expansion, 25 mg vistusertib bd 3/7 days + paclitaxel 80 mg/m^2"}},
  "note": "Read-outs that look alike come from different tables or passages of the source.",
  "data": [
    {"smiles": "CC(=O)O[C@H]1C(=O)[C@@]2(C)[C@H]([C@H](OC(=O)c3ccccc3)[C@]3(O)C[C@H](OC(=O)[C@H](O)[C@@H](NC(=O)c4ccccc4)c4ccccc4)C(C)=C1C3(C)C)[C@]1(OC(C)=O)CO[C@@H]1C[C@@H]2O", "note": "[paclitaxel]", "values": [
      {"measurement": "Increase in Ser^473 p-AKT levels in PRP", "setting": "[1]; 4 h following 80 mg/m^2 paclitaxel alone (C1D1), P = 0.14, statistically non-significant", "result": 1.4, "unit": "fold"},
      {"measurement": "Drug-drug PK interaction on drug exposure, combination versus either agent alone", "setting": "[2]", "result": "no drug-drug PK interaction"}
    ]},
    {"smiles": "CNC(=O)c1cccc(-c2ccc3c(N4CCOC[C@@H]4C)nc(N4CCOC[C@@H]4C)nc3n2)c1", "note": "[vistusertib]", "values": [
      {"measurement": "AUC versus dose of vistusertib", "setting": "[3]", "result": "approximately dose proportional"},
      {"measurement": "Drug-drug PK interaction on drug exposure, combination versus either agent alone", "setting": "[3]", "result": "no drug-drug PK interaction"},
      {"measurement": "Abdominal cramps/pain, % of patients", "setting": "[4]; [13]", "result": 8, "unit": "%"},
      {"measurement": "Alopecia, % of patients", "setting": "[4]; [13]", "result": 54, "unit": "%"},
      {"measurement": "Haemoptysis, % of patients", "setting": "[4]; [13]", "result": 4, "unit": "%"},
      {"measurement": "Aches and pain, % of patients", "setting": "[4]; [14]", "result": 12, "unit": "%"},
      {"measurement": "Alopecia, % of patients", "setting": "[4]; [14]", "result": 12, "unit": "%"},
      {"measurement": "Tolerated dose of vistusertib in sqNSCLC", "setting": "[4]; human, in vivo", "result": 25, "unit": "mg"},
      {"measurement": "Patients with reduction in size of their tumour", "setting": "[5]; HGSOC expansion at RP2D", "result": 76, "unit": "%"},
      {"measurement": "Patients with reduction in size of their tumour, number", "setting": "[5]; HGSOC expansion at RP2D", "result": "19 of 25"},
      {"measurement": "GCIG CA125 responses, patients", "setting": "[5]; [15]", "result": "16/25"},
      {"measurement": "Median progression-free survival (mPFS)", "setting": "[5]; [15]", "result": 5.8, "unit": "months"},
      {"measurement": "RECIST responses (partial response), patients", "setting": "[5]; [15]", "result": "13/25"},
      {"measurement": "GCIG CA125 response rate", "setting": "[5]; [16]", "result": 64, "unit": "%"},
      {"measurement": "RECIST response rate", "setting": "[5]; [16]", "result": 52, "unit": "%"},
      {"measurement": "RECIST response, N with PR", "setting": "[5]; OVARIAN Expansion (50 mg AZD2014/80 mg Paclitaxel), 27 patients", "result": 13, "unit": "PR"},
      {"measurement": "Ser^473 p-AKT lower than corresponding time-point following paclitaxel alone", "setting": "[1]; 4 h, vistusertib 50 mg bd 3/7 + paclitaxel", "result": 62, "unit": "%"},
      {"measurement": "Ser^473 p-AKT in PRP, % of pre-dose levels", "setting": "[1]; 4 h post-vistusertib, 50 mg bd 3/7 in addition to paclitaxel (C1D8), P = 0.0495", "result": 53, "unit": "%"},
      {"measurement": "Change of p-AKT in PRP after single dose of vistusertib alone", "setting": "[1]; C1D4, 50 mg", "result": "non-significant reduction"},
      {"measurement": "Effect of the combination of vistusertib and paclitaxel on growth", "setting": "[6]", "result": "additive effect"},
      {"measurement": "AUC(0-t)", "setting": "[7]; 25 mg", "result": 2090, "unit": "ng·h/mL"},
      {"measurement": "Cmax", "setting": "[7]; 25 mg", "result": 579, "unit": "ng/mL"},
      {"measurement": "half-life", "setting": "[7]; 25 mg", "result": 3.3, "unit": "h"},
      {"measurement": "AUC(0-t)", "setting": "[7]; 50 mg", "result": 2600, "unit": "ng·h/mL"},
      {"measurement": "Cmax", "setting": "[7]; 50 mg", "result": 840, "unit": "ng/mL"},
      {"measurement": "half-life", "setting": "[7]; 50 mg", "result": 1.8, "unit": "h"},
      {"measurement": "AUC(0-t)", "setting": "[7]; 75 mg", "result": 7540, "unit": "ng·h/mL"},
      {"measurement": "Cmax", "setting": "[7]; 75 mg", "result": 1840, "unit": "ng/mL"},
      {"measurement": "half-life", "setting": "[7]; 75 mg", "result": 2.7, "unit": "h"},
      {"measurement": "AUC(0-t)", "setting": "[7]; 100 mg", "result": 7560, "unit": "ng·h/mL"},
      {"measurement": "Cmax", "setting": "[7]; 100 mg", "result": 1960, "unit": "ng/mL"},
      {"measurement": "half-life", "setting": "[7]; 100 mg", "result": 3, "unit": "h"},
      {"measurement": "Hyperglycaemia, all grades, % of patients", "setting": "[8]", "result": 11, "unit": "%"},
      {"measurement": "Hyperglycaemia, grade 3/4, % of patients", "setting": "[8]", "result": 1, "unit": "%"},
      {"measurement": "half-life", "setting": "[9]", "result": "short half-life"},
      {"measurement": "Recommended phase II dose (RP2D) of vistusertib", "setting": "[10]; bd 3/7 days for 6/7 weeks, with 80 mg/m^2 weekly paclitaxel", "result": 50, "unit": "mg"},
      {"measurement": "Dose-limiting toxicities", "setting": "[10]; in vivo", "result": "rash"},
      {"measurement": "Dose-limiting toxicities", "setting": "[10]; schedule A (bd 3/7 days) with weekly paclitaxel 80 mg/m^2", "result": "fatigue and mucositis"},
      {"measurement": "Maximally tolerated dose (MTD) of vistusertib", "setting": "[10]; schedule A, bd 3/7 days for 6/7 weeks, with 80 mg/m^2 weekly paclitaxel", "result": 50, "unit": "mg"},
      {"measurement": "Maximally tolerated dose (MTD) of vistusertib", "setting": "[10]; schedule B, bd 2/7 days for 6/7 weeks, with 80 mg/m^2 weekly paclitaxel", "result": 75, "unit": "mg"},
      {"measurement": "RECIST response, N with PR", "setting": "[11]; LUNG Expansion (25 mg AZD2014/80 mg Paclitaxel), 24 patients", "result": 8},
      {"measurement": "Patients with reduction in the size of their tumour", "setting": "[11]; [17]", "result": 78, "unit": "%"},
      {"measurement": "Patients with reduction in the size of their tumour, number", "setting": "[11]; [17]", "result": "Eighteen of the 23"},
      {"measurement": "Median progression-free survival (mPFS)", "setting": "[11]; [18]", "result": 5.8, "unit": "months"},
      {"measurement": "RECIST responses (partial response), patients", "setting": "[11]; [18]", "result": "8/23"},
      {"measurement": "RECIST response rate", "setting": "[11]; sqNSCLC expansion, 25 mg vistusertib bd 3/7 days + paclitaxel 80 mg/m^2, 23 patients", "result": 35, "unit": "%"},
      {"measurement": "Partial responses in patients with sqNSCLC", "setting": "[12]", "result": "two partial responses"}
    ]}
  ]
}
